Source: PubChem BioAssay AID2060886 (Molecular Pharmacology Branch, DTP, NCI, 2025)

System: 653999-131-R-J2-PDC complex spheroids, growth inhibition
Experiment: Anticancer human tumor 653999-131-R-J2-PDC patient-derived lung adenocarcinoma cell line growth inhibition [RAS]
Conditions: for viability, T/C: stronger effect = lower value
Method in brief: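 Multi-cell-type spheroids: tumor cells plus HUVEC endothelial cells and mesenchymal stem cells. RAS-pathway inhibitors were combined with targeted agents, each dosed in half-log steps down from clinical Cmax, or from 10 microM when Cmax was unknown.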

[1] = curve of first compound, second compound 0.000949 µM
[2] = curve of first compound, second compound 0.003 µM
[3] = curve of first compound, second compound 0.00949 µM
[4] = curve of first compound, second compound 0.03 µM
[5] = curve of first compound, second compound 0.0949 µM
[6] = curve of first compound, second compound 0.3 µM
[7] = second compound 0.000949 µM, first compound 0.0316 µM
[8] = second compound 0.000949 µM, first compound 0.1 µM
[9] = second compound 0.000949 µM, first compound 0.316 µM
[10] = second compound 0.000949 µM, first compound 1 µM
[11] = second compound 0.003 µM, first compound 0.0316 µM
[12] = second compound 0.003 µM, first compound 0.1 µM
[13] = second compound 0.003 µM, first compound 0.316 µM
[14] = second compound 0.003 µM, first compound 1 µM
[15] = second compound 0.00949 µM, first compound 0.0316 µM
[16] = second compound 0.00949 µM, first compound 0.1 µM
[17] = second compound 0.00949 µM, first compound 0.316 µM
[18] = second compound 0.00949 µM, first compound 1 µM
[19] = second compound 0.03 µM, first compound 0.0316 µM
[20] = second compound 0.03 µM, first compound 0.1 µM
[21] = second compound 0.03 µM, first compound 0.316 µM
[22] = second compound 0.03 µM, first compound 1 µM
[23] = second compound 0.0949 µM, first compound 0.0316 µM
[24] = second compound 0.0949 µM, first compound 0.1 µM
[25] = second compound 0.0949 µM, first compound 0.316 µM
[26] = second compound 0.0949 µM, first compound 1 µM
[27] = second compound 0.3 µM, first compound 0.0316 µM
[28] = second compound 0.3 µM, first compound 0.1 µM
[29] = second compound 0.3 µM, first compound 0.316 µM
[30] = second compound 0.3 µM, first compound 1 µM
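Note: spheroids exposed to the agents for seven days before the readout.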

With `CC1(O)CCCC1n1c(=O)c(C(F)F)cc2cnc(NC3CCN(S(C)(=O)=O)CC3)nc21` (stereo unspecified) + CCn1c(-c2cc(N3CCN(C)CC3)cnc2C(C)OC)c2c3cc(ccc31)-c1csc(n1)CC(NC(=O)C1CC1C)C(=O)N1CCCC(N1)C(=O)OCC(C)(C)C2 the IC50 [1] was 8400 nM, the IC50 [2] was 57.9 nM and the IC50 [3] was under 31.6 nM. The IC50 [4] was under 31.6 nM, the IC50 [5] was under 31.6 nM and the IC50 [6] was under 31.6 nM. The viability, T/C [7] was 67.8%, the viability, T/C [8] was 48.4% and the viability, T/C [9] was 57.4%. For the same compound, the viability, T/C [10] was 49%, the viability, T/C (second compound 0.000949 µM, first compound 3.16 µM) was 73% and the viability, T/C (second compound 0.000949 µM, first compound 10 µM) was 37.7%. For the same compound, the viability, T/C [11] was 52.4%, the viability, T/C [12] was 49.5% and the viability, T/C [13] was 40.1%. The viability, T/C [14] was 49.9%, the viability, T/C (second compound 0.003 µM, first compound 3.16 µM) was 47.2% and the viability, T/C (second compound 0.003 µM, first compound 10 µM) was 38.5%. For the same compound, the viability, T/C [15] was 43%, the viability, T/C [16] was 28.5% and the viability, T/C [17] was 28.5%. For the same compound, the viability, T/C [18] was 28.1%, the viability, T/C (second compound 0.00949 µM, first compound 3.16 µM) was 39% and the viability, T/C (second compound 0.00949 µM, first compound 10 µM) was 29.1%. For the same compound, the viability, T/C [19] was 36.6%, the viability, T/C [20] was 23.9% and the viability, T/C [21] was 25.8%. The viability, T/C [22] was 24.9%, the viability, T/C (second compound 0.03 µM, first compound 3.16 µM) was 30.7% and the viability, T/C (second compound 0.03 µM, first compound 10 µM) was 20%. It also gave a viability, T/C [23] of 27.2%, a viability, T/C [24] of 20.3% and a viability, T/C [25] of 18.8%. It also gave a viability, T/C [26] of 19.4%, a viability, T/C (second compound 0.0949 µM, first compound 3.16 µM) of 26.7% and a viability, T/C (second compound 0.0949 µM, first compound 10 µM) of 24.7%. For the same compound, the viability, T/C [27] was 19.2%, the viability, T/C [28] was 18.5% and the viability, T/C [29] was 25.2%. For the same compound, the viability, T/C [30] was 20.8%, the viability, T/C (second compound 0.3 µM, first compound 3.16 µM) was 20.3% and the viability, T/C (second compound 0.3 µM, first compound 10 µM) was 21%.

With `Cc1nc(N2CCC3(CC2)COC(C)C3N)c(CO)nc1Sc1ccnc(N)c1Cl` (stereo unspecified) the viability, T/C (compound 0.0316 µM) was 91.2% [middle of 4 runs], the viability, T/C (compound 0.1 µM) was 98.4% [middle of 4 runs] and the viability, T/C (compound 1 µM) was 87.6% [middle of 4 runs]. The viability, T/C (compound 3.16 µM) was 85.8% [middle of 4 runs] and the IC50 (curve of compound) was over 10000 nM.

`O=C(c1ccc(F)c(F)c1Nc1ccc(I)cc1F)N1CC(O)([C@@H]2CCCCN2)C1` + CCn1c(-c2cc(N3CCN(C)CC3)cnc2C(C)OC)c2c3cc(ccc31)-c1csc(n1)CC(NC(=O)C1CC1C)C(=O)N1CCCC(N1)C(=O)OCC(C)(C)C2 showed an IC50 [1] of 43.1 nM, an IC50 [2] of 18 nM and an IC50 [3] of 7.57 nM. It also gave an IC50 [4] of under 3.16 nM, an IC50 [5] of under 3.16 nM and an IC50 [6] of under 3.16 nM. For the same compound, the viability, T/C (second compound 0.000949 µM, first compound 0.00316 µM) was 77.8%, the viability, T/C (second compound 0.000949 µM, first compound 0.01 µM) was 73.4% and the viability, T/C [7] was 48.3%. It also gave a viability, T/C [8] of 43.1%, a viability, T/C [9] of 14.6% and a viability, T/C [10] of 4.82%. For the same compound, the viability, T/C (second compound 0.003 µM, first compound 0.00316 µM) was 52.7%, the viability, T/C (second compound 0.003 µM, first compound 0.01 µM) was 54% and the viability, T/C [11] was 45.5%. The viability, T/C [12] was 34.8%, the viability, T/C [13] was 12% and the viability, T/C [14] was 4.41%. The viability, T/C (second compound 0.00949 µM, first compound 0.00316 µM) was 52.2%, the viability, T/C (second compound 0.00949 µM, first compound 0.01 µM) was 50.2% and the viability, T/C [15] was 34.1%. The viability, T/C [16] was 14.4%, the viability, T/C [17] was 7.76% and the viability, T/C [18] was 3.12%. For the same compound, the viability, T/C (second compound 0.03 µM, first compound 0.00316 µM) was 26.6%, the viability, T/C (second compound 0.03 µM, first compound 0.01 µM) was 16.9% and the viability, T/C [19] was 15.1%. It also gave a viability, T/C [20] of 9.74%, a viability, T/C [21] of 4.27% and a viability, T/C [22] of 3.44%. The viability, T/C (second compound 0.0949 µM, first compound 0.00316 µM) was 19.7%, the viability, T/C (second compound 0.0949 µM, first compound 0.01 µM) was 16.8% and the viability, T/C [23] was 12.1%. For the same compound, the viability, T/C [24] was 5.71%, the viability, T/C [25] was 3.46% and the viability, T/C [26] was 2.86%. It also gave a viability, T/C (second compound 0.3 µM, first compound 0.00316 µM) of 15.9%, a viability, T/C (second compound 0.3 µM, first compound 0.01 µM) of 15% and a viability, T/C [27] of 10.6%. The viability, T/C [28] was 4.53%, the viability, T/C [29] was 4.09% and the viability, T/C [30] was 1.86%.

`CCc1c2c(nc3ccc(O)cc13)-c1cc3c(c(=O)n1C2)COC(=O)[C@]3(O)CC` + CCn1c(-c2cc(N3CCN(C)CC3)cnc2C(C)OC)c2c3cc(ccc31)-c1csc(n1)CC(NC(=O)C1CC1C)C(=O)N1CCCC(N1)C(=O)OCC(C)(C)C2 gave an IC50 [1] of 3.61 nM, an IC50 [2] of 1.3 nM and an IC50 [3] of under 0.949 nM. It also gave an IC50 [4] of under 0.949 nM, an IC50 [5] of under 0.949 nM and an IC50 [6] of under 0.949 nM. It also gave a viability, T/C (second compound 0.000949 µM, first compound 0.000949 µM) of 70.2%, a viability, T/C (second compound 0.000949 µM, first compound 0.003 µM) of 48.4% and a viability, T/C (second compound 0.000949 µM, first compound 0.00949 µM) of 42.2%. The viability, T/C (second compound 0.000949 µM, first compound 0.03 µM) was 25.1%, the viability, T/C (second compound 0.000949 µM, first compound 0.0949 µM) was 17.2% and the viability, T/C (second compound 0.000949 µM, first compound 0.3 µM) was 11.2%. The viability, T/C (second compound 0.003 µM, first compound 0.000949 µM) was 56%, the viability, T/C (second compound 0.003 µM, first compound 0.003 µM) was 34.1% and the viability, T/C (second compound 0.003 µM, first compound 0.00949 µM) was 30.6%. For the same compound, the viability, T/C (second compound 0.003 µM, first compound 0.03 µM) was 17.5%, the viability, T/C (second compound 0.003 µM, first compound 0.0949 µM) was 14.7% and the viability, T/C (second compound 0.003 µM, first compound 0.3 µM) was 10.1%. The viability, T/C (second compound 0.00949 µM, first compound 0.000949 µM) was 39.1%, the viability, T/C (second compound 0.00949 µM, first compound 0.003 µM) was 27.3% and the viability, T/C (second compound 0.00949 µM, first compound 0.00949 µM) was 18.9%. The viability, T/C (second compound 0.00949 µM, first compound 0.03 µM) was 14.1%, the viability, T/C (second compound 0.00949 µM, first compound 0.0949 µM) was 9.53% and the viability, T/C (second compound 0.00949 µM, first compound 0.3 µM) was 6.56%. The viability, T/C (second compound 0.03 µM, first compound 0.000949 µM) was 29.8%, the viability, T/C (second compound 0.03 µM, first compound 0.003 µM) was 18.2% and the viability, T/C (second compound 0.03 µM, first compound 0.00949 µM) was 17.8%. For the same compound, the viability, T/C (second compound 0.03 µM, first compound 0.03 µM) was 9.32%, the viability, T/C (second compound 0.03 µM, first compound 0.0949 µM) was 6.76% and the viability, T/C (second compound 0.03 µM, first compound 0.3 µM) was 6.96%. The viability, T/C (second compound 0.0949 µM, first compound 0.000949 µM) was 23.9%, the viability, T/C (second compound 0.0949 µM, first compound 0.003 µM) was 15.4% and the viability, T/C (second compound 0.0949 µM, first compound 0.00949 µM) was 11.4%. The viability, T/C (second compound 0.0949 µM, first compound 0.03 µM) was 9.9%, the viability, T/C (second compound 0.0949 µM, first compound 0.0949 µM) was 7.72% and the viability, T/C (second compound 0.0949 µM, first compound 0.3 µM) was 5.39%. It also gave a viability, T/C (second compound 0.3 µM, first compound 0.000949 µM) of 21.1%, a viability, T/C (second compound 0.3 µM, first compound 0.003 µM) of 14.4% and a viability, T/C (second compound 0.3 µM, first compound 0.00949 µM) of 11.6%. The viability, T/C (second compound 0.3 µM, first compound 0.03 µM) was 9.69%, the viability, T/C (second compound 0.3 µM, first compound 0.0949 µM) was 6.54% and the viability, T/C (second compound 0.3 µM, first compound 0.3 µM) was 4.62%.
